Results published in patent US7528252B2, “Derivatives of triazoly-imidazopyridine useful as ligands of the adenosine A2a receptor and their use as medicaments” (Sigma-Tau Industrie Farmaceutiche Riunite S.p.A., priority 2002, dated 2009).

How the values were obtained:
α1(non-selective) = test: Receptor binding study, α1; conditions: 1 μM; mean values, n = 2
5-HT3 (h) = 5-HT3 (h) (Homo sapiens, UniProt P46098); test: Receptor binding study, 5-HT3; conditions: mean values, n = 2, read-out: percent inhibition of control specific binding
Chain of 5-HT3 (h) (P46098 24-478): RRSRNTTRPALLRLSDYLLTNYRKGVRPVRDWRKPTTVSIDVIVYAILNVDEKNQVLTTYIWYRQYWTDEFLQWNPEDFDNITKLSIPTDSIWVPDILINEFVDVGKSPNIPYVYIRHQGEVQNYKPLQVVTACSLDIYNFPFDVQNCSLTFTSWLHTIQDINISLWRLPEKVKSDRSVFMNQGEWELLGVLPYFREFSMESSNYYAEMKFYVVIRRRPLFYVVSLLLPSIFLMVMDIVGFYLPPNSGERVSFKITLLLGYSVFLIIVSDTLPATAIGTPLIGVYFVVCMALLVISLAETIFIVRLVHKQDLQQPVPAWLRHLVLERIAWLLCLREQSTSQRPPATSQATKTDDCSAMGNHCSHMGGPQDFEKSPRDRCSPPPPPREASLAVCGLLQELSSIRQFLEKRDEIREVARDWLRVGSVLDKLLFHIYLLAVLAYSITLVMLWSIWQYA

ADOtransporter = test: Receptor binding study, ADO transporter; conditions: 1 μM; mean values, n = 2
M3 = M3 (Homo sapiens, UniProt P20309); test: Receptor binding study, M3; conditions: mean values, n = 2, read-out: percent inhibition of control specific binding
Chain of M3 (P20309 whole entry): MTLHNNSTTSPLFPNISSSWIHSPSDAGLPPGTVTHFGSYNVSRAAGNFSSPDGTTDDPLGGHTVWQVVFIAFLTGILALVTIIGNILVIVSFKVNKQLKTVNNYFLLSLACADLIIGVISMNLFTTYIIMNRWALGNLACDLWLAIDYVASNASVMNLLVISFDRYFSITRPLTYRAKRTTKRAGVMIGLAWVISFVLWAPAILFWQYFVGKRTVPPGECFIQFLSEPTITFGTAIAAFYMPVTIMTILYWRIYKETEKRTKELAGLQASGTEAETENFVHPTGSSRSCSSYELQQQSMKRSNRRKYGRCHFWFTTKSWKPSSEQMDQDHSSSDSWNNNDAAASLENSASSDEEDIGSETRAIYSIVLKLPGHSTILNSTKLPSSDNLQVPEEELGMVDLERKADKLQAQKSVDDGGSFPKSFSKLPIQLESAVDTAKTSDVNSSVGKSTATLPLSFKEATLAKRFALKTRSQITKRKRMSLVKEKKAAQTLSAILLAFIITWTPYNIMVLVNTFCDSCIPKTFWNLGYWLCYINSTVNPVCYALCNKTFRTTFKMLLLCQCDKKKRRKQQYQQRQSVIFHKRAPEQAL

H1 (central) = H1 (central) (Cavia porcellus, UniProt P31389); test: Receptor binding study, H1 (central); conditions: mean values, n = 2, read-out: percent inhibition of control specific binding
[1] = biological target: T1, human A3 subtype adenosine receptor (Homo sapiens, UniProt P0DMS8); test: Affinity towards the adenosine A3 receptor ([125I]AB-MECA binding, HEK-293 membranes); conditions: test compounds; read-out: A3 (h) Ki
T1 construct: expressed in transfected cells; host or cells: HEK-293
T1 sequence (P0DMS8 whole entry): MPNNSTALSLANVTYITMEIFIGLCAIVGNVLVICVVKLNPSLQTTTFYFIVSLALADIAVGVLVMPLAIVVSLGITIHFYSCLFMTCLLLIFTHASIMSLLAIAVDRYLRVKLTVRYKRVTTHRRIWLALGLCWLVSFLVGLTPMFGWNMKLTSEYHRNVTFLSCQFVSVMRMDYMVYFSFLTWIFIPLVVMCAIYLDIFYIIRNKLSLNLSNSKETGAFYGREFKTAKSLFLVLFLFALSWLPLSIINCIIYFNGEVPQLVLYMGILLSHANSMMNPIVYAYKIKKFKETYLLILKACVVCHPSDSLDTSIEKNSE

5-HT6 (h) = 5-HT6 (h) (Homo sapiens, UniProt P50406); test: Receptor binding study, 5-HT6; conditions: mean values, n = 2, read-out: percent inhibition of control specific binding
Chain of 5-HT6 (h) (P50406 whole entry): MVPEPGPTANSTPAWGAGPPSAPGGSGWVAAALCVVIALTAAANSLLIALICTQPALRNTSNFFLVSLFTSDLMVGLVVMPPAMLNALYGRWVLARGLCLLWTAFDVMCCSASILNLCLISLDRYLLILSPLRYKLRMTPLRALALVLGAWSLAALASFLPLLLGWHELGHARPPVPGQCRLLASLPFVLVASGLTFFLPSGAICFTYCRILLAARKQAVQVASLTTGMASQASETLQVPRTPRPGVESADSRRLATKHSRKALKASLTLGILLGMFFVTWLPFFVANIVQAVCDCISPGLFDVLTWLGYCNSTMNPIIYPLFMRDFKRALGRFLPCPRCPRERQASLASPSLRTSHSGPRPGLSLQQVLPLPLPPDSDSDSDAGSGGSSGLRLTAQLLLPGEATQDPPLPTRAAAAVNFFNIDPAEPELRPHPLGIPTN

[2] = biological target: T2, human A1 subtype adenosine receptor (Homo sapiens, UniProt P30542); test: Affinity towards the adenosine A1 receptor ([3H]-DPCPX binding, CHO-K1 membranes); conditions: read-out: A1 Ki (nM) ± sd
T2 construct: expressed in transfected cells; host or cells: CHO-K1
T2 sequence (P30542 1-326): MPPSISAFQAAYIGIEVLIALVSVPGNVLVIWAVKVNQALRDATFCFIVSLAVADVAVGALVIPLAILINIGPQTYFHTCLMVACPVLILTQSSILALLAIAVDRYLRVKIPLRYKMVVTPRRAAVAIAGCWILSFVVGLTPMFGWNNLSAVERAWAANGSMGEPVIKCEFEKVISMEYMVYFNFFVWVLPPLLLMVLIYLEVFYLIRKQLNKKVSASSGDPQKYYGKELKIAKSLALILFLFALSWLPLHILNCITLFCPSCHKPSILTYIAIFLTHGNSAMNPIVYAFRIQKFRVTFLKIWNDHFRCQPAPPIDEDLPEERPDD

Kainate = test: Receptor binding study, Kainate; conditions: 1 μM; mean values, n = 2
AMPA = test: Receptor binding study, AMPA; conditions: 1 μM; mean values, n = 2
D1 = D1 (Homo sapiens, UniProt P21728); test: Receptor binding study, D1; conditions: mean values, n = 2, read-out: percent inhibition of control specific binding
Chain of D1 (P21728 whole entry): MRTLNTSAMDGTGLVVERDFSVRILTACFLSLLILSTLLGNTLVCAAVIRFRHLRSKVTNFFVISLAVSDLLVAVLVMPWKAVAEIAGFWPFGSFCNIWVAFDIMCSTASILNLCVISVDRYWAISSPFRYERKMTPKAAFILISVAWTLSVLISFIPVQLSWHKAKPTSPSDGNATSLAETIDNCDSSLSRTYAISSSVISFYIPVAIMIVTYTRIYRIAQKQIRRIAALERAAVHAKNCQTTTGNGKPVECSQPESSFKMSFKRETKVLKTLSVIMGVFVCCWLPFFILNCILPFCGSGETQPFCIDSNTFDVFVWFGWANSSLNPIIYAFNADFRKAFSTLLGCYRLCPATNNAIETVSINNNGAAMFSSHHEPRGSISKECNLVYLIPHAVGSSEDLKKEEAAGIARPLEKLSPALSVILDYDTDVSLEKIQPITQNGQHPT

NE transporter = NE transporter (Homo sapiens, UniProt P23975); test: Receptor binding study, NE transporter; conditions: mean values, n = 2, read-out: percent inhibition of control specific binding
Chain of NE transporter (P23975 whole entry): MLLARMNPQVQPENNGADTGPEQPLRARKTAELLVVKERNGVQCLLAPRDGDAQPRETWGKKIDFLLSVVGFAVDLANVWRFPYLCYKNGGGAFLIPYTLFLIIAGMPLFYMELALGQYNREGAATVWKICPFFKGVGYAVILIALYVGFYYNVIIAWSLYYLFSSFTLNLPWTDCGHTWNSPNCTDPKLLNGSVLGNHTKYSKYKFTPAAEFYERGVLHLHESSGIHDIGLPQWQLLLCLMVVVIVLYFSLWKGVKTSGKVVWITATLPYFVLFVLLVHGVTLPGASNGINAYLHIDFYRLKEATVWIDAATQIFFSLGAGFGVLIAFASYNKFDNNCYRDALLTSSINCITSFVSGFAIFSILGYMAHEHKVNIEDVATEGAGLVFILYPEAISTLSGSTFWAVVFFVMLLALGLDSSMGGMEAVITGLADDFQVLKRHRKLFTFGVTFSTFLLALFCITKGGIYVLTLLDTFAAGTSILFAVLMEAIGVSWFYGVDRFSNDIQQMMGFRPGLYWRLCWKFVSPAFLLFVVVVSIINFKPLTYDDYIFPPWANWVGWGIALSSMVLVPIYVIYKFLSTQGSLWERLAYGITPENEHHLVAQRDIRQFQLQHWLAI

GABAtransporter = test: Receptor binding study, GABA transporter; conditions: 1 μM; mean values, n = 2
DA transporter = DA transporter (Homo sapiens, UniProt Q01959); test: Receptor binding study, DA transporter; conditions: mean values, n = 2, read-out: percent inhibition of control specific binding
Chain of DA transporter (Q01959 whole entry, species assumed): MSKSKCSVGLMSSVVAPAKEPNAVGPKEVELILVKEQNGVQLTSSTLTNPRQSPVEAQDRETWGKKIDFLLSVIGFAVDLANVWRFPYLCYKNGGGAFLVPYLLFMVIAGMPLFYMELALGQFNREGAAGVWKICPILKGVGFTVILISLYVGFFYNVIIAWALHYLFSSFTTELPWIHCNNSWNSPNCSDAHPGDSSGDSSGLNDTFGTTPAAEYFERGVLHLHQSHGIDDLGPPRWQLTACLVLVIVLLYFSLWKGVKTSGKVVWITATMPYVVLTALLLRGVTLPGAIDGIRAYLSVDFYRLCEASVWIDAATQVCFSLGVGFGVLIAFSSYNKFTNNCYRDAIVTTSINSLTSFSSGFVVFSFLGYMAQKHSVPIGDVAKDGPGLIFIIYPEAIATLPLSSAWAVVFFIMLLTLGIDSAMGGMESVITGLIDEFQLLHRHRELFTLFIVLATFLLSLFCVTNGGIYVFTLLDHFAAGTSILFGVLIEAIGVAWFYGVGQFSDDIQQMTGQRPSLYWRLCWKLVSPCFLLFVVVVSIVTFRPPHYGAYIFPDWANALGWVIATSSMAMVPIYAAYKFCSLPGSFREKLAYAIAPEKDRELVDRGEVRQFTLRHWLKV

PCP = test: Receptor binding study, PCP; conditions: 1 μM; mean values, n = 2
β2 = β2 (Homo sapiens, UniProt P07550); test: Receptor binding study, β2; conditions: mean values, n = 2, read-out: percent inhibition of control specific binding
Chain of β2 (P07550 whole entry): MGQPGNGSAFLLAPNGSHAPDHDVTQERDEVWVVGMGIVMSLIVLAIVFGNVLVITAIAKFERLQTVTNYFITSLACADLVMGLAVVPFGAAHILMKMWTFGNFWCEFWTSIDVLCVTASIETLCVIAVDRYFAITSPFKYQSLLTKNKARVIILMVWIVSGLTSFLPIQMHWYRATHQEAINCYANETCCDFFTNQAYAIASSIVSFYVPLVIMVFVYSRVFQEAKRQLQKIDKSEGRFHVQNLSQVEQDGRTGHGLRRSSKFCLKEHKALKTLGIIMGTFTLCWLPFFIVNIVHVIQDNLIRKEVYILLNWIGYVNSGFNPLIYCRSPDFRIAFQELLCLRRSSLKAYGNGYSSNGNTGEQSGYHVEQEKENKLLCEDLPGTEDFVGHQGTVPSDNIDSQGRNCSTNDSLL

5-HT1A = 5-HT1A (Homo sapiens, UniProt P08908); test: Receptor binding study, 5-HT1A; conditions: mean values, n = 2, read-out: percent inhibition of control specific binding
D2 = D2 (Homo sapiens, UniProt P14416); test: Receptor binding study, D2; conditions: mean values, n = 2, read-out: percent inhibition of control specific binding
GABAa = test: Receptor binding study, GABAa; conditions: 1 μM; mean values, n = 2
5-HT4 = 5-HT4 (Homo sapiens, UniProt Q13639); test: Receptor binding study, 5-HT4; conditions: mean values, n = 2, read-out: percent inhibition of control specific binding
Chain of 5-HT4 (Q13639 whole entry, species assumed): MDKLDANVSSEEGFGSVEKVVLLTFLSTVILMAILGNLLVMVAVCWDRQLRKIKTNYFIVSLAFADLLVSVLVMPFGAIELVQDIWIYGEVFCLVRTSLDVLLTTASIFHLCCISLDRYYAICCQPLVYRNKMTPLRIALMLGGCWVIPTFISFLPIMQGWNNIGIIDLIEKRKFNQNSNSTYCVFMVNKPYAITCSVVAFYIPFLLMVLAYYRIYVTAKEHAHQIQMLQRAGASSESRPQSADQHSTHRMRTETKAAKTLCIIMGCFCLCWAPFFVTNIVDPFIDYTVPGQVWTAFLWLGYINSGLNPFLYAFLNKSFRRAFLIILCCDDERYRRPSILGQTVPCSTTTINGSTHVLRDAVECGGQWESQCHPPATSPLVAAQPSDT

mice [3] = test: Capacity to antagonise Haloperidol-induced catalepsy; type: in vivo; conditions: orally 10 mg/kg and 20 mg/kg; Haloperidol 4 mg/Kg endoperitoneal
Experimental: (§1) 10 CD1 male mice were used per group. For this test, a steel bar, 10 cm long, was placed at a height of 4.5 cm above the support surface. Onto this, were placed the front legs of the animals. The presence of catalepsy was determined by measuring the time (in seconds) the animal remained in the posture placed. Later, this parameter was placed relatively, on a scale of rising values (0 to 5) through which, the degree of catalepsy determined in both control animals and in these subjected to treatment with the substances under test could be proportionately expressed.
For this study, product ST 1535 was used. Catalepsy was induced in the animals through the endoperitoneal administration of Haloperidol at a dose of 4 mg/Kg, two hours prior measuring catalepsy in the animals, the presence of which was determined according to the method described previously.
After scoring for catalepsy by Haloperidol, the animals were treated orally, with a dose equal to 10 mg/kg and 20 mg/kg of the product ST 1535. Then 60 minutes after treatment, the animals were subjected to further catalepsy scoring, which was carried out at the following times after ST 1535 administration: 120′, 240′, 300′.

human A2a receptor [4] = biological target: T3, human A2a receptor (Homo sapiens, UniProt P29274); test: biochemical
T3 sequence (P29274 whole entry): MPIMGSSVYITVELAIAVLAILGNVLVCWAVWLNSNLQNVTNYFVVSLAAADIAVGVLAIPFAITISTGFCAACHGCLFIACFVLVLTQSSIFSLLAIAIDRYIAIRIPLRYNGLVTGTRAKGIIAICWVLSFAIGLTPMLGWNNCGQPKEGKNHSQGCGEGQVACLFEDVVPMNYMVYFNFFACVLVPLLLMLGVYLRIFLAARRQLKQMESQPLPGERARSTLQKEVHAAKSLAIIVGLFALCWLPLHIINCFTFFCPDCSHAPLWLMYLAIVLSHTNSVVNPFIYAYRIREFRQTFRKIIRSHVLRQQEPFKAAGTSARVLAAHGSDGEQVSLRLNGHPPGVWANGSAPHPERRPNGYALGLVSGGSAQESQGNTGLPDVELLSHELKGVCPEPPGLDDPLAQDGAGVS

human A2a receptor [5] = biological target: T3, human A2a receptor; conditions: ratio of receptor affinity (selectivity)
mice [6] = test: Capacity to antagonise CGS 21680 induced catalepsy; type: in vivo; conditions: orally 5 mg/Kg and 10 mg/Kg, 30 minutes prior to CGS 21680 (10 μg/5 μl/mouse i.c.v.); scored 30′, 60′, 120′, 180′
Experimental: as §1
For this study, the product ST 1535 was used. Catalepsy was induced in the animals through the intracerebroventricular administration of CGS 21680 (10 μg/5 μl/mouse), 30 minutes prior to testing for the catalepsy score. The test compound was administered orally at a dose of 5 mg/Kg and 10 mg/Kg , 30 minutes prior to treatment with CGS 21680.
The catalepsy score was derived in the manner described following treatment with OGS 21680 after the following times: 30′, 60′ 120′, 180′.

Row | Structure (SMILES) | percent inhibition of control specific binding (α1(non-selective)) | inhibition at 1 µM (5-HT3 (h)) [%] | percent inhibition of control specific binding (ADOtransporter) [%] | inhibition at 1 µM (M3) [%] | inhibition at 1 µM (H1 (central)) [%] | Ki [1] [nM] | inhibition at 1 µM (5-HT6 (h)) [%] | Ki [2] [nM] | percent inhibition of control specific binding (Kainate) | percent inhibition of control specific binding (AMPA) | inhibition at 1 µM (D1) [%] | inhibition at 1 µM (NE transporter) [%] | percent inhibition of control specific binding (GABAtransporter) | inhibition at 1 µM (DA transporter) [%] | percent inhibition of control specific binding (PCP) | inhibition at 1 µM (β2) [%] | inhibition at 1 µM (5-HT1A) [%] | inhibition at 1 µM (D2) [%] | percent inhibition of control specific binding (GABAa) | inhibition at 1 µM (5-HT4) [%] | also measured
1 | CCCCCc1nc(N)c2nc(-n3nccn3)n(C)c2n1 [ST 2097, 9-methyl-2-pentyl-8-(2H-1,2,3-triazol-2-yl)-9H-purine-6-ylamine] | — (The symbol — indicates an inhibition of less than 10%.) | < 10 | 34 | < 10 | < 10 | 519 | < 10 | 26.2 ± 6.55 | — (The symbol — indicates an inhibition of less than 10%.) | — (The symbol — indicates an inhibition of less than 10%.) | < 10 | < 10 | — (The symbol — indicates an inhibition of less than 10%.) | < 10 | — (The symbol — indicates an inhibition of less than 10%.) | < 10 | < 10 | < 10 | — (The symbol — indicates an inhibition of less than 10%.) | < 10 | –
2 | CCCCc1nc(N)c2nc(-n3nccn3)n(C)c2n1 [ST 1535, 2-butyl-9-methyl-8-(2H-1,2,3-triazol-2-yl)-9H-purine-6-ylamine] | — (The symbol — indicates an inhibition of less than 10%.) | < 10 | 24 | < 10 | < 10 | 1580 | < 10 | 107 ± 40 | — (The symbol — indicates an inhibition of less than 10%.) | — (The symbol — indicates an inhibition of less than 10%.) | < 10 | < 10 | — (The symbol — indicates an inhibition of less than 10%.) | < 10 | — (The symbol — indicates an inhibition of less than 10%.) | < 10 | < 10 | < 10 | — (The symbol — indicates an inhibition of less than 10%.) | < 10 | effect on Haloperidol induced catalepsy (FIG. 3) (mice [3]): reduces the appearance of catalepsy in mice; Ki (human A2a receptor [4]): 2.29 ± 0.58 nM; KiA1/KiA2a (human A2a receptor [5]): 47; effect on CGS 21680-induced catalepsy (FIG. 2) (mice [6]): significantly antagonises the appearance of catalepsy at all the observed times
